Test results: patent US9035051B1, “Ghrelin O-acyl transferase inhibitor” (Eli Lilly and Company, priority 2013, dated 2015)

Legend:
[1] = molecular target: T1, human GOAT (Homo sapiens, UniProt Q96T53); test: In vitro cell free human GOAT enzymatic assay; assay type: biochemical; details: GOAT-His/sf9 microsomal membrane enzyme preparation; ELISA of acyl-ghrelin; n=5
T1 construct: His; made in house; host or cells: Sf9 insect cells (baculovirus, pAN51 vector); used as microsomal membrane preparation
T1 sequence (Q96T53 1-435): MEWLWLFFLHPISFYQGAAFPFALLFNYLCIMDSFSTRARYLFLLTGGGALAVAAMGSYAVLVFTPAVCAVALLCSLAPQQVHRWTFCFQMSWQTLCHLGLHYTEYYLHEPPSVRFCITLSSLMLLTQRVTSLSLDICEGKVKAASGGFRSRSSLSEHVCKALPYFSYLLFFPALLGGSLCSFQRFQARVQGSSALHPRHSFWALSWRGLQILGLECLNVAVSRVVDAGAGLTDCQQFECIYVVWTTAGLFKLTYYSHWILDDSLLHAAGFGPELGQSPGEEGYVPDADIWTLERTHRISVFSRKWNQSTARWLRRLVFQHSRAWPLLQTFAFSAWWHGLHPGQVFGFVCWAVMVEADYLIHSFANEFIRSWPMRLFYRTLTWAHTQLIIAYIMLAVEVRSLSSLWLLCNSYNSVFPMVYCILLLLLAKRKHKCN
Protocol: Human GOAT gene (Accession number: NM_001100916) is subcloned to pAN51 baculoviral expression vector. Baculovirus stock is prepared following the Bac-to-Bac Protocol provided by the vendor, Invitrogen, California, USA. Five milliliters of human GOAT baculoviral stock are added to 500 mL Sf9 cells in HyQ SFX-Insect™ media (HyClone catalog number SH30278.02) at the density of 1×10^6 cells per milliliter in a 2 L Erlenmeyer flask. The flask with human GOAT gene infected Sf9 cells is put on a plate shaker at 120 rpm at 28° C. for 48 h. After 48 h incubation, cells are centrifuged at 1,000×g for 10 min at 4° C. The cell pellets are collected and stored at −80° C. in a freezer until ready for further processing.
One gram cell pellets are suspended in 9 mL chilled homogenization buffer (50 mM Tris-HCl, 250 mM sucrose, adjusted to pH 7.5, and sterile filtered through 0.2 μm Millipore filter). The cell suspension is transferred to a Dounce glass homogenizer. Cell pellets are homogenized with 40 strokes on ice. The homogenate is centrifuged at 3,000 rpm in a Beckman swing bucket rotor at 4° C. for 10 min to remove unbroken cells. […]
Prepare ELISA plates (STREPTAVIDIN SPECTRAPLATE™ 384, Perkin Elmer) by blocking with 2% Heat-Inactivated FBS in PBS (40 μL) (Invitrogen) blocking buffer for 3 h. […] Read plates at 450 nm using an Envision Multilabel plate reader. […]

[2] = molecular target: T2, GOAT enzyme (Mus musculus, UniProt P0C7A3); test: In vivo dose dependent 3 day BID study for GOAT inhibitor (plasma AG and UAG by ELISA); set-up: species or system male C57BL/6 mice; details: 3 days; for AG (% of control) / AG/Total-ghrelin (% of vehicle control) / UAG (% of vehicle control) / increase of UAG: plasma; for increase of UAG / decrease of plasma AG: vs vehicle; for reduction in AG to total ghrelin ratio: vs vehicle-treated control animals
T2 construct: endogenous in cells; host or cells: male C57BL/6 mice (whole animal, oral dosing; plasma AG/UAG read-out)
T2 sequence (P0C7A3 1-435): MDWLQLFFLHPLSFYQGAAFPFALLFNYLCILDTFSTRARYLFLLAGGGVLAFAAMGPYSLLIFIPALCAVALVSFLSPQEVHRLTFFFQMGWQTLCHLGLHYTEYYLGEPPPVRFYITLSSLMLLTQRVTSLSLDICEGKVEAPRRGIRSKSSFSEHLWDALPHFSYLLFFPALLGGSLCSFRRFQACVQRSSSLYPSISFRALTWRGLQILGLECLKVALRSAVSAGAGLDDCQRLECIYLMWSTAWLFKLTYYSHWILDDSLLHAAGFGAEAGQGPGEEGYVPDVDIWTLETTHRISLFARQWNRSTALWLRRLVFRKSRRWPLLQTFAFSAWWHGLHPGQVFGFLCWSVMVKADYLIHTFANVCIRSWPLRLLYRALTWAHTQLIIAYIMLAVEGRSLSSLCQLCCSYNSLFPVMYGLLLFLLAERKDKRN
Protocol: Comparing the change in the ratio of AG to total ghrelin in the compound treated group and that of the vehicle treated group reflects the degree of GOAT enzyme inhibition in vivo, due to the dynamic processing of UAG to AG by the GOAT enzyme. In the in vivo pharmacodynamic studies herein, the levels of AG and UAG in plasma and stomach in the vehicle and compound treated groups are measured by ELISA specifically to these two analytes. The total ghrelin level of each sample is computed as the sum of AG and UAG by these ELISA measurements. The ratio of AG to total ghrelin is defined by the level of AG in each sample divided by the level of total ghrelin in the same sample. The levels of AG, UAG and ratio of AG to total ghrelin in the vehicle treated group is computed and set as 100%. The relative change of these parameters in the compound treated group is then computed to determine the effectiveness of the test compound.
Purchase male C57BL/6 mice from Harlan (Indianapolis, Ind.) at 9 weeks of age. House the mice individually in a temperature-controlled (24° C.) facility with a 12 h light/dark cycle (lights on 2200 h), and allow free access to a standard rodent chow (diet 2014, Harlan) and water. Typically, use the mice when they are 10-13 weeks of age at the time of the study. On day 0 of the experiment, randomize the mice into treatment groups (N=7/group) so each group has similar mean body weights. On day 1 and day 2, treat the animals with vehicle (1% hydroxyethylcellulose, 0.25% Tween 80, 0.05% antifoam) or test compound prepared in the vehicle as suspension at various dosages by oral gavage at 7 am and 7 pm. On day 3, fast the animals, move them into clean cages and dose with vehicle or the test compound again at 8 am by oral gavage. That same day at 1 pm, sacrifice the animals by decapitation to collect blood. For details of blood collection and plasma treatments see Blood collection and Extraction of Ghrelin from Plasma section below.
Collect approximately 600 μL blood into a pre-weighed EDTA tube containing 600 μL (defined as Vpreservative) freshly-prepared preservative (4 mM PEFABLOC® [4-(2-aminoethyl) benzenesulfonyl fluoride hydrochloride], 72 mM NaCl, 58 mM NaF, 0.032 N hydrochloric acid, pH 3.0) and mix immediately. Weigh the tube again and keep on ice. To accurately determine the exact blood volume of each sample using this blood collection procedure, the weight of the blood for each mouse is computed using the following equation: Weight of Blood=(Weight of the tube containing Blood+preservative)−(Weight of the tube containing preservative) Blood volume(Vblood)=(Weight of blood)/1.06
Within 15 minutes after the blood collection, samples are centrifuged at 5000 rpm at 4° C. for 8 min Remove plasma (650 μL) to a 5 mL glass tube containing 1 N hydrochloric acid (65 μL), mix and keep on ice.
AG and UAG are extracted from plasma using SEP-PAK®_C18 column to remove interference prior to performing the ELISA. The solid phase extraction of AG and UAG peptides by SEP-PAK®_C18 columns can be performed on a vacuum manifold (Waters Corp) or using a peristaltic pump. The sample SEP-PAK®_column extraction procedure is independently applied to the plasma sample obtained from each individual mouse. The general extraction protocol is described as follows.
All solutions used for the entire protocol of the SEP-PAK® column extraction should be at ice cold condition. Wet SEP-PAK®_columns (WAT054960, Waters Corp, Milford Mass.) with 99.9% ACN/0.1% TFA (1 mL of solution of 100 mL ACN/0.1 mL TFA). […] Once liquid is removed from the column, stop the pressure. Equilibrate the columns with 3% ACN/0.1% TFA (1 mL of 97 mL water, 3 mL ACN, 0.1 mL TFA). […] Dilute approximately 650 μL acidified plasma (defined as Vplasma added to column) to 1.4 mL ice cold 0.1% TFA. Load all diluted acidified plasma from the previous step onto the columns. […] Wash with 3% ACN/0.1% TFA (0.9 mL of 97 mL water, 3 mL ACN, 0.1 mL TFA). […] Repeat the wash two more times. […]

SMILES: Cc1nc(N)c(CCC2CCN(C(=O)[C@H](C)NC(=O)C3CC3)CC2)c(Cl)n1 [Example 1, N-[(1S)-2-[4-[2-(4-Amino-6-chloro-2-methyl-pyrimidin-5-yl)ethyl]-1-piperidyl]-1-methyl-2-oxo-ethyl]cyclopropanecarboxamide]
- IC50 [1]: ~192 nM
- AG (% of control) ([2]; 0.3 mg/kg oral gavage BID): 101 ± 025 % of control
- AG/Total-ghrelin (% of vehicle control) ([2]; 0.3 mg/kg oral gavage BID): 61 ± 04 % of vehicle control
- UAG (% of vehicle control) ([2]; 0.3 mg/kg oral gavage BID): 224 ± 035 % of vehicle control
- increase of UAG ([2]; 0.3 mg/kg oral gavage BID): 2.24 fold
- decrease of plasma AG ([2]; 0.3 mg/kg oral gavage BID): −1%
- reduction in AG to total ghrelin ratio ([2]; 0.3 mg/kg oral gavage BID): 39%
- AG (% of control) ([2]; 1 mg/kg oral gavage BID): 95 ± 018 % of control
- AG/Total-ghrelin (% of vehicle control) ([2]; 1 mg/kg oral gavage BID): 46 ± 011 % of vehicle control
- UAG (% of vehicle control) ([2]; 1 mg/kg oral gavage BID): 282 ± 045 % of vehicle control
- increase of UAG ([2]; 1 mg/kg oral gavage BID): 2.82 fold
- decrease of plasma AG ([2]; 1 mg/kg oral gavage BID): 5%
- reduction in AG to total ghrelin ratio ([2]; 1 mg/kg oral gavage BID): 54%
- AG (% of control) ([2]; 3 mg/kg oral gavage BID): 55 ± 06 % of control
- AG/Total-ghrelin (% of vehicle control) ([2]; 3 mg/kg oral gavage BID): 29 ± 04 % of vehicle control
- UAG (% of vehicle control) ([2]; 3 mg/kg oral gavage BID): 253 ± 031 % of vehicle control
- increase of UAG ([2]; 3 mg/kg oral gavage BID): 2.53 fold
- decrease of plasma AG ([2]; 3 mg/kg oral gavage BID): 45%
- reduction in AG to total ghrelin ratio ([2]; 3 mg/kg oral gavage BID): 71%
- AG (% of control) ([2]; 10 mg/kg oral gavage BID): 52 ± 010 % of control
- AG/Total-ghrelin (% of vehicle control) ([2]; 10 mg/kg oral gavage BID): 23 ± 04 % of vehicle control
- UAG (% of vehicle control) ([2]; 10 mg/kg oral gavage BID): 289 ± 044 % of vehicle control
- increase of UAG ([2]; 10 mg/kg oral gavage BID): 2.89 fold
- decrease of plasma AG ([2]; 10 mg/kg oral gavage BID): 48%
- reduction in AG to total ghrelin ratio ([2]; 10 mg/kg oral gavage BID): 77%
